{
  "source": "patent US20220289692A1",
  "about": "“NLRP3 INHIBITORS” (Inflazome Limited, priority 2019, published 2022)",
  "data": [
    {"biological_target": "T1, NLRP3 (Homo sapiens, UniProt Q96P20)", "T1 sequence (Q96P20 whole entry)": "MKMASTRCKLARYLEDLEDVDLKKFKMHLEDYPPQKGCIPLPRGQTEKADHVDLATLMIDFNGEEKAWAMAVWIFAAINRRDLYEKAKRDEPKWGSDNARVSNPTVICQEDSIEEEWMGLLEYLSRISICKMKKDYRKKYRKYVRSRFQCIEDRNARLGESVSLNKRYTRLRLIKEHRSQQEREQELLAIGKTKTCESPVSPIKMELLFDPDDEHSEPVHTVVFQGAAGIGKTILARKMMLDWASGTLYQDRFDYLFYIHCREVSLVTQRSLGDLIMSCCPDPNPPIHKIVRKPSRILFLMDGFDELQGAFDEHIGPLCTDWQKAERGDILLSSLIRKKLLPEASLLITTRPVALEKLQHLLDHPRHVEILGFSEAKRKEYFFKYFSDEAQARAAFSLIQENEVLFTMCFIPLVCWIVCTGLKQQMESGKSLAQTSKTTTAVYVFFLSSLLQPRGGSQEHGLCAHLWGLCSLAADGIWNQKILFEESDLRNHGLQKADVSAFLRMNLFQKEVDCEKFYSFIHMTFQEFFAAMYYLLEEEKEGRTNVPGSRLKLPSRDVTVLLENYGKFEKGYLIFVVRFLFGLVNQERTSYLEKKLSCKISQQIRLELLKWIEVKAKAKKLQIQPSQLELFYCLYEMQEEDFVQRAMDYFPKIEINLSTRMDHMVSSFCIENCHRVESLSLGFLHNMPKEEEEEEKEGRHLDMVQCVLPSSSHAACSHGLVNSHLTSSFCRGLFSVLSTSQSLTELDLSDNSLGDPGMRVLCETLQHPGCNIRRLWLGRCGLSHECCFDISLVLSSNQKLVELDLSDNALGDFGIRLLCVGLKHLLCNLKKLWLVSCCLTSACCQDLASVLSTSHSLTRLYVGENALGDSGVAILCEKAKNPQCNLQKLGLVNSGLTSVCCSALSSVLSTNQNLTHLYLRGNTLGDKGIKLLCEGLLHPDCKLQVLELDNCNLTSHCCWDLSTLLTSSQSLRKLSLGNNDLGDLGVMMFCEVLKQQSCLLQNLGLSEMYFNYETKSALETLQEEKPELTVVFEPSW", "test": "THP-1 cells pyroptosis assay (LPS priming, nigericin, resazurin read-out)", "assay_type": "cell-based", "set-up": "Seed THP-1 cells (25,000 cells/well) containing 1.0 μg/ml LPS in 40 μl of RPMI medium; host or cells: THP-1 cells, LPS-primed, nigericin-stimulated", "settings": "1.0 μg/ml LPS, 3 hrs compound, nigericin 5 μM 1 hr", "description": "THP-1 cells (ATCC #TIB-202) were grown in RPMI containing L-glutamine (Gibco #11835) supplemented with 1 mM sodium pyruvate (Sigma #S8636) and penicillin (100 units/ml)/streptomycin (0.1 mg/ml) (Sigma #P4333) in 10% Fetal Bovine Serum (FBS) (Sigma #F0804). The cells were routinely passaged and grown to confluency (˜10^6 cells/ml). On the day of the experiment, THP-1 cells were harvested and resuspended into RPMI medium (without FBS). The cells were then counted and viability (>90%) checked by Trypan blue (Sigma #T8154). Appropriate dilutions were made to give a concentration of 625,000 cells/ml. To this diluted cell solution was added LPS (Sigma #L4524) to give a […] Final Assay Concentration (FAC). 40 μl of the final preparation was aliquoted into each well of a 96-well plate. The plate thus prepared was used for compound screening. The following method step-by-step assay was followed for compound screening. • 1. Seed THP-1 cells (25,000 cells/well) containing 1.0 μg/ml LPS in 40 μl of RPMI medium (without FBS) in 96-well, black walled, clear bottom cell culture plates coated with poly-D-lysine (VWR #734-0317) • 2. Add 5 μl compound (8 points half-log dilution, with 10 μM top dose) or vehicle (DMSO 0.1% FAC) to the appropriate wells • 3. Incubate for 3 hrs at 37° C., 5% CO2 • 4. Add 5 μl nigericin (Sigma #N7143) (FAC 5 μM) to all wells • 5. Incubate for 1 hr at 37° C., 5% CO2 • 6. At the end of the incubation period, spin plates at 300×g for 3 mins and remove supernatant • 7. Then add 50 μl of resazurin (Sigma #R7017) (FAC 100 μM resazurin in RPMI medium without FBS) and incubate plates for a further 1-2 hrs at 37° C. and 5% CO2 • 8. Plates were read in an Envision reader at Ex 560 nm and Em 590 nm • 9. IC50 data is fitted to a non-linear regression equation (log inhibitor vs response-variable slope 4-parameters) The results of the pyroptosis assay are summarised in Table 1 below as THP IC50.", "units": {"IC50": "µM"}, "values": [
      {"smiles": "COC(=O)c1nnc(Nc2c3c(cc4c2CCC4)CCC3)[nH]1", "note": "[Example 7]", "IC50": "≤ 2"},
      {"smiles": "O=C(OCc1cccnc1)c1nnc(Nc2c3c(cc4c2CCC4)CCC3)[nH]1", "note": "[Example 2, pyridin-3-ylmethyl 5-((1,2,3,5,6,7-hexahydro-s-indacen-4-yl)amino)-4H-1,2,4-triazole-3-carboxylate]", "IC50": "≤ 10"},
      {"smiles": "COC(=O)c1nnc(Nc2c(-c3ccnc(OC4CCN(C)CC4)c3)ccc3c2CCC3)[nH]1", "note": "[Example 3]", "IC50": "≤ 10"},
      {"smiles": "CCOC(=O)c1nnc(Nc2c(-c3ccnc(OC)c3)ccc3c2CCC3)[nH]1", "note": "[Example 8]", "IC50": "≤ 5"},
      {"smiles": "O=C(OCc1ccccc1)c1nnc(Nc2c3c(cc4c2CCC4)CCC3)[nH]1", "note": "[Example 4]", "IC50": "≤ 5"},
      {"smiles": "CC(C)OC(=O)c1nnc(Nc2c3c(cc4c2CCC4)CCC3)[nH]1", "note": "[Example 6]", "IC50": "≤ 10"},
      {"smiles": "COC(=O)c1nnc(Nc2c3c(cc(C)c2-c2ccnc(OC)c2)CCC3)[nH]1", "note": "[Example 5]", "IC50": "≤ 5"},
      {"smiles": "CCOC(=O)c1nnc(Nc2c3c(cc4c2CCC4)CCC3)[nH]1", "note": "[Example 1, ethyl 5-((1,2,3,5,6,7-hexahydro-s-indacen-4-yl)amino)-4H-1,2,4-triazole-3-carboxylate]", "IC50": "≤ 2"}
    ]},
    {"biological_target": "T1, NLRP3", "test": "Human whole blood IL-1β release assay (LPS, nigericin, AlphaLisa)", "assay_type": "cell-based", "set-up": "Plate out 80 μl of whole blood containing 1 μg/ml of LPS in 96-well, clear bottom cell culture plate; from tissue; host or cells: human whole blood from healthy donors, LPS-primed, nigericin-stimulated", "settings": "1 μg/ml LPS, 3 hrs compound, nigericin 10 μM 1 hr, read-out: HWB IC50", "description": "For systemic delivery, the ability to inhibit NLRP3 when the compounds are present within the bloodstream is of great importance. For this reason, the NLRP3 inhibitory activity of a number of compounds in human whole blood was investigated in accordance with the following protocol.\nHuman whole blood in Li-heparin tubes was obtained from healthy donors from a volunteer donor panel. • 1. Plate out 80 μl of whole blood containing 1 μg/ml of LPS in 96-well, clear bottom cell culture plate (Corning #3585) • 2. Add 10 μl compound (8 points half-log dilution with 10 μM top dose) or vehicle (DMSO 0.1% FAC) to the appropriate wells • 3. Incubate for 3 hrs at 37° C., 5% CO2 • 4. Add 10 μl nigericin (Sigma #N7143) (10 μM FAC) to all wells • 5. Incubate for 1 hr at 37° C., 5% CO2 • 6. At the end of the incubation period, spin plates at 300×g for 5 mins to pellet cells and remove 20 μl of supernatant and add to 96-well v-bottom plates for IL-1β analysis (note: these plates containing the supernatants can be stored at −80° C. to be analysed at a later date) • 7. IL-1β was measured according to the manufacturer protocol (Perkin Elmer-AlphaLisa IL-1 Kit AL220F-5000) • 8. IC50 data is fitted to a non-linear regression equation (log inhibitor vs response-variable slope 4-parameters)", "units": {"IC50": "µM"}, "values": [
      {"smiles": "CCOC(=O)c1nnc(Nc2c3c(cc4c2CCC4)CCC3)[nH]1", "note": "[Example 1, ethyl 5-((1,2,3,5,6,7-hexahydro-s-indacen-4-yl)amino)-4H-1,2,4-triazole-3-carboxylate]", "IC50": "≤ 5"}
    ]}
  ]
}
